Experimental data from PubChem BioAssay (NCI).
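Cells were grown in 96-well plates and exposed to each compound for 48 hours at five concentrations; endpoints were interpolated linearly between bracketing concentrations, or set to the highest concentration if not reached. GI50 is the concentration that inhibits growth by half. The concentration for full growth arrest is given as TGI.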

How the values were obtained:
Test in all cases: DTP human tumour cell line panel, 48 h
[1] = system: OVCAR-3 ovarian
[2] = system: UO-31 renal
[3] = system: A498 renal
[4] = system: SN12C renal
[5] = system: OVCAR-5 ovarian
[6] = system: SK-MEL-5 melanoma
[7] = system: PC-3 prostate
[8] = system: NCI-H522 lung
[9] = system: MCF7 breast
[10] = system: LOX IMVI melanoma

Row | Structure (SMILES) | TGI [1] | TGI [2] | TGI [3] | TGI [4] | TGI [5] | TGI [6] | TGI [7] | TGI [8] | TGI [9] | TGI [10] | GI50 [2] | GI50 [3] | GI50 [4] | GI50 [10] | GI50 [5] | GI50 [6] | GI50 [7] | GI50 [8] | GI50 [9] | GI50 [1]
1 | CCCCCc1cc(/C=C2/N=C(c3ccc[nH]3)C=C2OC)[nH]c1C | 0.469 µM | < 0.0193 µM | 0.959 µM | 0.844 µM | 1.26 µM | 0.0422 µM | 1.06 µM | 0.209 µM | 0.0988 µM | – | – | – | – | – | – | – | – | – | – | –
2 | C#CN1C(=O)c2c(c(-c3ccccc3)c(-c3ccc(Oc4ccc(-c5c(-c6ccccc6)c6c(c(-c7ccccc7)c5-c5ccccc5)C(=O)N(C#C)C6=O)cc4)cc3)c(-c3ccccc3)c2-c2ccccc2)C1=O | > 100 µM | > 100 µM | – | > 100 µM | > 100 µM | > 100 µM | – | > 100 µM | – | > 100 µM | – | – | – | – | – | – | – | – | – | –
3 | O=C(O)C1=Cc2cccc3cccc(c23)C1=O | > 100 µM | > 100 µM | 73.5 µM | > 100 µM | > 100 µM | > 100 µM | – | > 100 µM | – | > 100 µM | – | – | – | – | – | – | – | – | – | –
4 | O=S(=O)(NCCNc1nccc(-c2c(-c3ccc(F)cc3)nc3sccn23)n1)c1ccc(O)cc1 | – | 16.7 µM | 23.2 µM | 76.6 µM | > 100 µM | 10.7 µM | 37.6 µM | 19.2 µM | 14.4 µM | 49.6 µM | 2.39 µM | 8.8 µM | 3.9 µM | 1880 nM | 11.8 µM | 1.39 µM | 4.51 µM | 3.51 µM | 0.476 µM | –
5 | CCOC(=O)CCc1c(C)c2c(OC)cc(OC)cc2oc1=O | > 100 µM | > 100 µM | – | > 100 µM | > 100 µM | – | – | > 100 µM | – | > 100 µM | – | – | – | – | – | – | – | – | – | –
6 | OC1(C(Sc2ccccc2)Sc2ccccc2)CCCCCC1 | 45.7 µM | 16.6 µM | 85.2 µM | 38.5 µM | – | 29.6 µM | – | 40.7 µM | – | 40 µM | – | – | – | – | – | – | – | – | – | –
7 | COc1ccccc1/C=C1\CCC(Cc2ccccc2)(CN(C)C)C1=O (stereo not drawn) | 15.3 µM | > 100 µM | 27.6 µM | 50.3 µM | > 81.9 µM | 11.9 µM | – | 2.1 µM | 25.6 µM | 29.4 µM | – | – | – | – | – | – | – | – | – | –
8 | N#CC1=C(N)N=C(N2CCOCC2)C(C#N)C12Nc1ccccc1S2 (stereo not drawn) | 58.1 µM | 61.4 µM | – | 82.9 µM | > 100 µM | 28.2 µM | > 100 µM | 51.5 µM | – | 41.1 µM | 16.4 µM | – | 27.5 µM | 16500 nM | 45.1 µM | 12.5 µM | 20.1 µM | 17.6 µM | – | 20.1 µM
9 | NNC(=O)/C(NC(=O)c1ccccc1)=C(\N)c1cccc([N+](=O)[O-])c1 | > 100 µM | > 100 µM | > 100 µM | > 100 µM | > 100 µM | > 100 µM | – | > 100 µM | – | > 100 µM | – | – | – | – | – | – | – | – | – | –
10 | Cc1ccccc1N(CCC#N)C1=NN(C(=O)CC(=O)Nc2ccc(Cl)cc2)C(c2ccccc2)C1 (stereo not drawn) | > 100 µM | > 100 µM | – | > 100 µM | > 100 µM | > 100 µM | – | > 100 µM | – | – | – | – | – | – | – | – | – | – | – | –
11 | O=c1cccccc1[O-].O=c1cccccc1[O-].O=c1cccccc1[O-].[Nd+3] | 38.2 µM | > 100 µM | > 100 µM | > 100 µM | > 100 µM | > 100 µM | – | 74.4 µM | – | > 100 µM | – | 81.4 µM | 35.6 µM | – | – | – | – | – | – | –
12 | CC(=O)OCc1nnn2c1C(OC(C)=O)CC2 (stereo not drawn) | > 100 µM | > 100 µM | – | > 100 µM | > 100 µM | > 100 µM | – | > 100 µM | – | – | – | – | – | – | – | – | – | – | – | –
13 | COc1cccc(C(=O)NNc2nc(Cl)nc(N3CCN(C(c4ccccc4)c4ccccc4)CC3)n2)c1 | 3.28 µM | 22 µM | 40.2 µM | 3.47 µM | 40 µM | 29.7 µM | – | – | > 100 µM | 3.14 µM | 3.14 µM | 14.1 µM | 1.8 µM | 1700 nM | 16.3 µM | 15.9 µM | – | – | 82.2 µM | 1.72 µM
14 | CC[C@]12C=CCN3CC[C@@]4(c5ccc(OC)cc5N(C)[C@H]4[C@@](O)(C(=O)OC)[C@@H]1OC(=O)CCC(=O)O[C@H]1CC[C@H]4[C@@H]5CCC6=CC(=O)CC[C@@H]6[C@H]5CC[C@]14C)[C@@H]32 | 31.9 µM | – | 9.42 µM | > 50 µM | > 50 µM | 2.1 µM | > 50 µM | > 50 µM | > 50 µM | 4.63 µM | – | 1.38 µM | 1.64 µM | 1510 nM | 1.9 µM | 0.99 µM | 0.996 µM | 1.8 µM | 1.52 µM | 1.73 µM
15 | CC(=O)OC(COc1ccc2c(c1)[n+]([O-])nc(N)[n+]2[O-])CN1CCCCC1 (stereo not drawn) | 38 µM | > 100 µM | 16.5 µM | 40.3 µM | 61.2 µM | 14.6 µM | – | 38.7 µM | 65.8 µM | – | – | – | – | – | – | – | – | – | – | –
16 | Cn1cc(-c2csc(-c3ccccc3)n2)c2cccnc21 | 32 µM | 28.3 µM | – | 28.2 µM | 32.7 µM | 26.6 µM | 39.1 µM | 33.3 µM | 33.8 µM | 25.4 µM | 11 µM | – | 15 µM | 12800 nM | 14 µM | 13.7 µM | 14.4 µM | 14.1 µM | 12.6 µM | 16.3 µM
17 | C[C@@H](NC1CCCC[C@@H]1O)c1ccccc1 (stereo partly drawn) | > 100 µM | > 100 µM | – | > 100 µM | > 100 µM | > 100 µM | – | – | – | > 100 µM | – | – | – | – | – | – | – | – | – | –
18 | OC1CC(O)O[C@H](c2ccccc2)C1 (stereo partly drawn) | > 100 µM | > 100 µM | > 100 µM | > 100 µM | > 100 µM | > 100 µM | – | – | – | > 100 µM | – | – | – | – | – | – | – | – | – | –
19 | Cc1[nH]c(=O)n2c(C)nnc2c1C(=O)O | > 100 µM | > 100 µM | – | > 100 µM | > 100 µM | – | – | > 100 µM | – | > 100 µM | – | – | – | – | – | – | – | – | – | –
20 | CC(=O)OC(C(=O)[O][Ge]([CH3])([CH3])[CH3])c1ccccc1 (stereo not drawn) | > 100 µM | > 100 µM | > 100 µM | > 100 µM | > 100 µM | > 100 µM | – | > 100 µM | – | > 100 µM | > 100 µM | > 100 µM | > 100 µM | > 100000 nM | > 100 µM | > 100 µM | – | > 100 µM | – | > 100 µM
21 | CC1=C2CC[C@@]3(C)C(=CCC3O)C2(C)CCC1=O (stereo partly drawn) | > 100 µM | > 100 µM | > 100 µM | > 100 µM | > 100 µM | > 100 µM | – | > 100 µM | – | > 100 µM | – | – | – | – | – | – | – | – | – | –
